TGI and GI50 data for 11 compounds are collected here from PubChem BioAssay (NCI).

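Method: 48-hour compound exposure of cells in 96-well plates, five concentrations, linear interpolation of endpoints. At the GI50, growth is halved. Definition used: TGI = concentration required for complete inhibition of growth.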 A value given as a limit tells only on which side of the number the result lay.

What all share (experiment): NCI tumour cell line growth inhibition, 48 h
Assay [1] concerns A549 NSCLC.
The test system of assay [2] is SF-539 CNS.
For assay [3], the system named is OVCAR-5 ovarian.
Assay [4] has as its system SF-268 CNS.
Assay [5] has as its system SK-OV-3 ovarian.
Assay [6] relates to U251 CNS.
The subject of assay [7] is HL-60(TB) leukemia.
The test system of assay [8] is K-562 leukemia.
For assay [9], the system named is SK-MEL-5 melanoma.
The test system of assay [10] is OVCAR-3 ovarian.

In the case of `S=c1o[nH]c(-c2ccccc2)c1C=Nc1ccccc1`, the TGI in assay [1], in assay [2], in assay [3], in [4], in [5] and in assay [6] was above 100 µM throughout. Also, the TGI in [7], in [8] and in assay [9] was above 100 µM each time.
Consider `COc1cc(-n2cc(-c3ccccc3)[nH]c2=O)cc(OC)c1OC`, for which the GI50 in assay [1] is 38.9 µM; in assay [2] it was 21.5 µM; in assay [3], above 100 µM; in assay [4], 28.5 µM; in assay [10], 23.2 µM; in [5], 34.3 µM. In addition, the GI50 in [6] is 41.3 µM; in [7] it was 60.3 µM; in assay [8], 83.9 µM; in assay [9], 39.4 µM. The TGI was above 100 µM in [1]; 63.8 µM in assay [2]; above 100 µM in [3]; 89.7 µM in assay [4]; above 100 µM in assay [10]; above 100 µM in assay [5]. In addition, the TGI in assay [6], in assay [7], in assay [8] and in assay [9] was above 100 µM throughout.
On to `CC(C)(C)C1CCC2c3c([nH]c4ncccc34)C3C(=O)N(c4ccccc4)C(=O)C3C2C1` (stereo unspecified), for which the TGI in [1], in [2], in [3], in assay [4], in assay [10] and in [5] was above 100 µM in each case. The TGI in [6], in assay [7], in assay [8] and in assay [9] was above 100 µM throughout.
On to `Cc1ccc(S(=O)(=O)NC(=O)NCCc2ccccc2)cc1`, for which the TGI in assay [1], in assay [2], in assay [3], in assay [4], in [10] and in [5] was above 100 µM throughout. Moreover, the TGI in assay [6], in assay [7], in assay [8] and in assay [9] was above 100 µM throughout.
`Cc1cccc(C)c1NC(=O)CCc1nnc2s/c(=C\c3ccc(N(C)C)cc3)c(=O)n12`: the TGI in assay [1], in assay [2], in [3], in assay [4], in assay [10] and in assay [5] was above 100 µM each time. Besides, the TGI in assay [6], in [7], in assay [8] and in assay [9] was above 100 µM throughout.
Take `COc1cccc(/C=C/c2nc3c(cnn3-c3ccccc3)c(=O)[nH]2)c1`: the GI50 in [1] is above 39.6 µM; in assay [2], above 70 µM; in [3], above 100 µM; in [4], above 55.6 µM; in [10], 24.9 µM; in assay [5] it was above 100 µM. In addition, the GI50 in assay [6] was above 72.1 µM; in assay [7], above 62.8 µM; in [9], above 96.6 µM. The TGI in [1], in [2], in assay [3], in assay [4], in assay [10] and in assay [5] was above 100 µM each time. In addition, the TGI in assay [6], in [7], in assay [8] and in [9] was above 100 µM in each case.
For the compound `N#Cc1c(-c2ccccc2)cc(-c2ccc(N)cc2)[nH]c1=O`, the TGI in assay [1], in assay [2], in assay [3], in assay [4], in assay [10] and in [5] was above 100 µM each time. Also, the TGI in assay [6], in assay [7], in assay [8] and in [9] was above 100 µM each time.
With `O=[N+]([O-])c1cccc(-c2nc(-c3ccc(Cl)cc3Cl)cn2-c2ccccc2)c1`, the GI50 in [1] was 0.787 µM; in [2], 1.02 µM; in assay [3], 3.54 µM; in assay [4], 1.14 µM; in [10], 0.458 µM; in assay [5] it was 3.06 µM. Also, the GI50 in assay [6] was 0.614 µM; in assay [7] it was above 33.3 µM; in assay [8], above 9.26 µM; in [9], 6.78 µM. In addition, the TGI turned out to be 1.92 µM in assay [1]; 4.33 µM in assay [2]; 24.6 µM in [3]; 5.5 µM in assay [4]; 0.945 µM in assay [10]; 29.9 µM in [5]. In addition, the TGI is 1.26 µM in assay [6], above 33.3 µM in assay [7], above 33.3 µM in assay [8] and above 33.3 µM in assay [9].
Take `O=[P+](O)c1ccccn1`: the TGI in assay [1], in assay [2], in assay [3], in [4], in [10] and in assay [5] was above 100 µM throughout. The TGI in [6], in [7], in assay [8] and in assay [9] was above 100 µM in each case.
As for `CCCCC(C)/C=C/C(=O)C1=C(O)/C(=C/C(=O)O)OC1=O` (stereo unspecified), the TGI in [1], in assay [2], in [3], in assay [10], in assay [5] and in [6] was above 100 µM throughout. In addition, the TGI in assay [7], in assay [8] and in assay [9] was above 100 µM each time.
As to `CC(C)(C)OP(=O)(OC(C)(C)C)C(O)c1ccc(/C=C(\C#N)C(N)=O)cc1` (stereo unspecified), the TGI in assay [1], in assay [2], in [3], in [4], in assay [10] and in [5] was above 100 µM each time. The TGI in assay [6], in assay [7] and in assay [8] was above 100 µM each time.
